Experimental data reported in publication PMC11504387, “Synthesis and Biological Activity Assessment of 2-Styrylbenzothiazoles as Potential Multifunctional Therapeutic Agents” (Antioxidants, 2024).
Marks after values point to notes of the source that are not given here.

Key:
[1] = DPPH radical scavenging activity; format: biochemical; details: mean ± SD; for DPPH Inhibition %: 1 mg/mL
Procedure: For all the compounds, 0.750 mL of a DMSO-MeOH solution mixed with 1.5 mL of DPPH solution (0.004%) in MeOH was analysed. The samples were kept in the dark at room temperature for 30 min and then analysed with a spectrophotometer by reading the absorbance at 517 nm (lambda max of the absorption spectrum of the DPPH radical). Equation (5) was used to obtain the percentage inhibition (%) of the radical: DPPH radical-scavenging capacity (%) = [1 − (A1 − A2)/A0] × 100%(5) where A2 is the blank (MeOH), and A1 and A0 are, respectively, the recorded absorbances of the sample and control (0.750 MeOH and 1.5 mL DPPH solution), directly proportional to the concentration of residual DPPH. An initial screening was performed by testing all compounds at a concentration of 1 mg/mL (Trolox® was used as the standard); subsequently, compounds showing >90% radical inhibition were further tested to calculate their IC50 value (expressed in µg/mL). Ferulic acid was used as positive control. A linear regression was performed to calculate the sample concentration able to eliminate 50% of DPPH free radicals.

Human recombinant 5-LO = molecular target: T1, Human recombinant 5-LO (Homo sapiens, UniProt P09917); assay: 5-Lipoxygenase inhibition in a cell-free assay; format: biochemical; details: for remaining activity at 10 µM: % relative to vehicle (DMSO), read-out: 5-LO Residual Activity (Cell-Free, 10 µM); for IC50: isolated enzyme
T1 construct: made in house
T1 sequence (P09917 1-674): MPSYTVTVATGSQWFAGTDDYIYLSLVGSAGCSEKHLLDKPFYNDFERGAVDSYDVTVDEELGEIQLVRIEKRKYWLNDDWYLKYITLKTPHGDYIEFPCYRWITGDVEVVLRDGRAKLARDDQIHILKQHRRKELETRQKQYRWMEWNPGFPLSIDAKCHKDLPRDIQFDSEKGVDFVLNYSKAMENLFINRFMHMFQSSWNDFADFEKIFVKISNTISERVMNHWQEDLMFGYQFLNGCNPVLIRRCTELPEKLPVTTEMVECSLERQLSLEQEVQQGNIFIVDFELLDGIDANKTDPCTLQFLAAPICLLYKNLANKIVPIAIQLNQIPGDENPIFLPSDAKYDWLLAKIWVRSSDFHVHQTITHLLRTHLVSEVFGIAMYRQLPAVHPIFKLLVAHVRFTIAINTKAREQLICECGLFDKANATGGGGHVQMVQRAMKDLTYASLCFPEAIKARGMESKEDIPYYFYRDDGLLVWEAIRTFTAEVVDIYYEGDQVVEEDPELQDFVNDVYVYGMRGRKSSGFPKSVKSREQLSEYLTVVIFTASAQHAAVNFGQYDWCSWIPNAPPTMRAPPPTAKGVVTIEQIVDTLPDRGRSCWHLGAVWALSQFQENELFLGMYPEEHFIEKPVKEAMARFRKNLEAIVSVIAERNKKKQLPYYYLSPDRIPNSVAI
Procedure: Human recombinant 5-LO was expressed and isolated as described before, and immediately used for activity assays after isolation. The 5-LO (0.5 µg, in 1 mL PBS pH 7.4 containing 1 mM EDTA) was pre-incubated with the test compounds for 10 min at 4 °C and pre-warmed for 30 s at 37 °C. 5-LO product formation was initiated by sequential addition of 1 mM CaCl2 and 20 μM arachidonic acid. After 10 min at 37 °C, the reaction was terminated by addition of 1 mL ice-cold methanol containing 200 ng PGB1 as internal standard. Formed 5-LO products (trans-LTB4, epi-trans-LTB4, and 5-HETE) were extracted using Sep-Pak C18 35 cc Vac Cartridges and analysed by UPLC-MS/MS as previously described.

PMNL = assay: ROS production in PMA-stimulated PMNL; format: cell-based, human; details: 10 µM; for ROS Production (% of Control): mean ± SD
Procedure: After 10 min at 37 °C, PMA (0.1 μM) was added. The fluorescence emission at 530 nm was measured after excitation at 485 nm in a thermally controlled (37 °C) NOVOstar microplate reader (BMG Lab technologies GmbH, Offenburg, Germany). […] ROS generation was induced by phorbol-12-myristate-13-acetate (PMA), a widely recognized agent for stimulating ROS production in neutrophils and enhancing endogenous superoxide formation. Diphenyleneiodonium (DPI, 10 µM), a NADPH oxidase inhibitor, served as a positive control. Through this assay, we could assess the potential interaction of our compounds with intracellular ROS production and their capacity to act as radical scavengers within a relevant cellular context. Furthermore, the outcomes provided additional insights into their inhibitory mechanism and helped to determine whether they act directly or non-specifically, as there is evidence that an impact on the ROS levels in PMNL could be translated to modulation of 5-LO activity in the cellular environment. […] With those data in hand, together with 5-LO inhibition assay outcomes, a direct inhibition of the enzyme stands as the best fitting option regarding the mechanism of action of compounds BZTst4 and BZTst6. […] This phenomenon was not further explored because such investigation was beyond the scope of this work.

[2] = test system: human melanoma Colo38 cells; assay: Cell growth inhibition assay, Colo38; format: cell-based; details: for IC50: Homo sapiens, 24 h incubation, mean ± SD; for SI (selectivity index): IC50 HaCat / IC50 Colo38
Procedure: Cell growth inhibition analyses were performed on human melanoma Colo38 cells and skin HaCat keratinocytes. Human melanoma Colo38 cells were kindly given by Dr. Patrizio Giacomini (Laboratory of Immunology, Regina Elena Institute, Rome, Italy). HaCat cells were obtained from Istituto Zooprofilattico Sperimentale della Lombardia e dell’Emilia-Romagna, Brescia, Italy. Cells were seeded at 40,000 cells/mL and 25,000 cells/mL, respectively. Colo38 cells were maintained in RPMI 1640, supplemented with 10% foetal bovine serum (FBS), penicillin (100 Units/mL), and streptomycin (100 µg/mL). HaCat cells were maintained in DMEM, supplemented with 10% fatal bovine serum (FBS), penicillin (100 Units/mL), streptomycin (100 µg/mL) and glutamine (2 mM); the incubation was performed at 37 °C in a 5% CO2 atmosphere. Compounds were dissolved in DMSO to obtain 50 mM stock solutions and diluted before cell treatment in MeOH. The tested compounds were added at serial dilutions to the cell cultures (from 0.1 to 100 µM) and incubated for 24 h further. Cells were then harvested, suspended in physiological solution, and counted with a Z2 Coulter Counter (Coulter Electronics, Hialeah, FL, USA). The number of cells/mL and the IC50 values were determined when untreated cells were in the log phase of cell growth. Samples of vehicles and untreated cells were included in each plate. Cisplatin was used as positive control for the HaCat cells, while N1-(4-arylidene)-1H-(2-OH-4-N(Et)2-phenyl)-[d]imidazole-2-carbohydrazide was used as positive control for the Colo38 cell line.

SMILES | DPPH Inhibition % [1] | remaining activity at 10 µM (Human recombinant 5-LO) | Effect on ROS production (in words) (PMNL) | ROS Production (% of Control) (PMNL) | IC50 [2] | SI (selectivity index) [2] | IC50 (Human recombinant 5-LO) | DPPH IC50 (sample concentration able to scavenge 50% of the DPPH radical) ([1]; values in brackets) | Lowering of ROS production (PMNL)
C(=C\c1nc2ccccc2s1)/c1ccccc1 [BZTst1, (E)-2-styrylbenzo[d]thiazole] | <LOQ ^b | 72 ± 20.4% | do not display any significant interference | 124.78 ± 17.88 % of control | 85.6 ± 2.76 µM | >1.17 | – | – | –
Oc1ccc(/C=C/c2nc3ccccc3s2)cc1 [BZTst2, (E)-4-(2-(benzo[d]thiazol-2-yl)vinyl)phenol] | 26.70 ± 0.83% | 47.3 ± 20.2% | unexpected rise in the ROS level | >150% ^a % of control | 79.8 ± 4.7 µM | 1.07 | 9.26 µM | – | –
COc1ccc(/C=C/c2nc3ccccc3s2)cc1 [BZTst3, (E)-2-(4-methoxystyryl)benzo[d]thiazole] | <LOQ ^b | 46.7 ± 28.5% | do not display any significant interference | 108.70 ± 12.15 % of control | > 100 µM | – | – | – | –
Oc1ccc(/C=C/c2nc3ccccc3s2)cc1O [BZTst4, (E)-4-(2-(benzo[d]thiazol-2-yl)vinyl)benzene-1,2-diol] | 88.54 ± 0.47% | 6.85 ± 3.72% | – | 53.81 ± 16.30 % of control | 58.1 ± 12.1 µM | 1.38 | 0.05 µM | 10.46 ± 0.27 µg/mL | < 50%
COc1ccc(/C=C/c2nc3ccccc3s2)cc1O [BZTst5, (E)-5-(2-(benzo[d]thiazol-2-yl)vinyl)-2-methoxyphenol] | 46.88 ± 0.60% | 34.8 ± 18.4% | do not display any significant interference | 99.62 ± 4.14 % of control | > 100 µM | <1 | – | – | –
COc1cc(/C=C/c2nc3ccccc3s2)ccc1O [BZTst6, (E)-4-(2-(benzo[d]thiazol-2-yl)vinyl)-2-methoxyphenol] | 18.86 ± 0.11 ^c % | 6.84 ± 3.38% | – | 62.50 ± 5.62 % of control | 71.5 ± 14.2 µM | >1.40 | 0.33 µM | – | < 50%
